Results as given in patent US12612386B2, “Heteroaryl-triazole compounds as pesticides” (Bayer Aktiengesellschaft, priority 2020, dated 2026).

Test system: adult mosquitoes Aedes aegypti strain MONHEIM
Assay: Aedes aegypti test (AEDSAE surface treatment & contact assay)
Type: in vivo
Settings: surface concentration 4 mg/m^2, 30 min exposure, 24 hours after contact, read-out: efficacy (mortality)
Protocol: Aedes aegypti Test (AEDSAE Surface Treatment & Contact Assay)
(§1) Solvent: Aceton+2000 ppm rapeseed oil methyl ester (RME)
(§2) This solution is pipetted onto a glazed tile and after evaporation of the acetone, adult mosquitoes of the species Aedes aegypti strain MONHEIM are placed onto the dried surface. The exposure time is 30 minutes. Mortality in percent (%) is determined 24 hours after contact of the insects to the treated surface. 100% mortality means that all tested insects are dead, whereas 0% means that no insect died.

**Q.** With CNC(=O)c1cc(-n2ncnc2[C@H](C)NC(=O)c2cc(Br)cc(OC(F)(F)F)c2)ncn1 [I-74] as the molecule, how does the mortality at 4 mg/m2 read?
**A.** The mortality at 4 mg/m2 was 80 to 100%.

**Q.** For C[C@H](NC(=O)c1cc(OC(F)F)cc(OC(F)F)c1)c1ncnn1-c1cc(C(N)=O)ncn1 [I-93], which mortality at 4 mg/m2 is on record?
**A.** The mortality at 4 mg/m2 was 80 to 100%.

Same assay, conditions: surface concentration 20 mg/m^2, 30 min exposure, 24 hours after contact, read-out: efficacy (mortality)

**Q.** For CNC(=O)c1cc(-n2ncnc2[C@H](C)NC(=O)c2cc(Br)cc(OC(F)(F)F)c2)ncn1 [I-74], which mortality at 20 mg/m2 is on record?
**A.** The mortality at 20 mg/m2 was 80 to 100%.

**Q.** For C[C@H](NC(=O)c1cc(OC(F)F)cc(OC(F)F)c1)c1ncnn1-c1cc(C(N)=O)ncn1 [I-93], which mortality at 20 mg/m2 is on record?
**A.** Its mortality at 20 mg/m2 is 80 to 100%.

Test system: green peach aphid (Myzus persicae)
Assay: Myzus persicae spray test (MYZUPE)
Type: in vivo
Settings: 120 h, 100 g/ha, after 5 days
In short: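 Percent aphid kill, with 0% meaning none killed, was read 5 days after spraying. The preparation (acetone–DMF solvent, water with 1000 ppm emulsifier) was applied to Brassica pekinensis leaf disks carrying mixed-instar green peach aphids.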

**Q.** How did the mortality at 100 g/ha turn out when CNC(=O)c1cc(-n2ncnc2[C@H](C)NC(=O)c2cc(Br)cc(OC(F)(F)F)c2)ncn1 [I-74] was run?
**A.** The mortality at 100 g/ha was 90%.

**Q.** With C[C@H](NC(=O)c1cc(OC(F)F)cc(OC(F)F)c1)c1ncnn1-c1cc(C(N)=O)ncn1 [I-93] as the molecule, how does the mortality at 100 g/ha read?
**A.** Its mortality at 100 g/ha is 100%.

Test system: larvae of the southern green stink bug (Nezara viridula)
Assay: whole plant or invertebrate
Type: in vivo
Settings: 96 h
In short: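 Percent mortality of southern green stink bug larvae was recorded at day 4, with 100% meaning all dead. The larvae were placed on barley sprayed with the test solution. That solution was prepared from acetone/dimethylformamide concentrate diluted in emulsifier-containing water (1000 ppm).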

**Q.** How did the mortality at 500 g/ha turn out when CNC(=O)c1cc(-n2ncnc2[C@H](C)NC(=O)c2cc(Br)cc(OC(F)(F)F)c2)ncn1 [I-74] was run?
**A.** Its mortality at 500 g/ha is 100%.

**Q.** C[C@H](NC(=O)c1cc(OC(F)F)cc(OC(F)F)c1)c1ncnn1-c1cc(C(N)=O)ncn1 [I-93] was tested. Which mortality at 500 g/ha did it give?
**A.** The mortality at 500 g/ha was 100%.

Test system: cattle tick larvae (Rhipicephalus microplus), strain Parkhurst, resistant against synthetic pyrethroids
Assay: Rhipicephalus (Boophilus) microplus in-vitro contact test, larval cattle tick
Type: in vivo
Settings: 5 μg/cm^2 (=500 g/ha), after 48 hours
In short: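 Larvae exposed by contact to a dried acetone film on glass; a 900 ppm solution yields 5 μg/cm^2. Scoring after 48 h at 27° C. counts dead plus moribund larvae as efficacy.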

**Q.** How did the “efficacy (larvae dead or moribund)” value turn out when CNC(=O)c1cc(-n2ncnc2[C@H](C)NC(=O)c2cc(Br)cc(OC(F)(F)F)c2)ncn1 [I-74] was run?
**A.** Its value is 100%.

Test system: adult mosquitoes Culex quinquefasciatus strain P00
Assay: Culex quinquefasciatus test (CULXFA surface treatment & contact assay)
Type: in vivo
Settings: surface concentration 4 mg/m^2, 30 min exposure, 24 hours after contact, read-out: efficacy (mortality)
Protocol: Culex quinquefasciatus Test (CULXFA Surface Treatment & Contact Assay)
as §1
as §2, with “Culex quinquefasciatus” for “Aedes aegypti”, “P00” for “MONHEIM”

**Q.** How did the mortality at 4 mg/m2 turn out when CNC(=O)c1cc(-n2ncnc2[C@H](C)NC(=O)c2cc(Br)cc(OC(F)(F)F)c2)ncn1 [I-74] was run?
**A.** The mortality at 4 mg/m2 was 80 to 100%.

**Q.** How did the mortality at 4 mg/m2 turn out when C[C@H](NC(=O)c1cc(OC(F)F)cc(OC(F)F)c1)c1ncnn1-c1cc(C(N)=O)ncn1 [I-93] was run?
**A.** Its mortality at 4 mg/m2 is 80 to 100%.

Same assay, conditions: surface concentration 20 mg/m^2, 30 min exposure, 24 hours after contact, read-out: efficacy (mortality)

**Q.** For CNC(=O)c1cc(-n2ncnc2[C@H](C)NC(=O)c2cc(Br)cc(OC(F)(F)F)c2)ncn1 [I-74], which mortality at 20 mg/m2 is on record?
**A.** The mortality at 20 mg/m2 was 80 to 100%.

**Q.** C[C@H](NC(=O)c1cc(OC(F)F)cc(OC(F)F)c1)c1ncnn1-c1cc(C(N)=O)ncn1 [I-93] was tested. Which mortality at 20 mg/m2 did it give?
**A.** Its mortality at 20 mg/m2 is 80 to 100%.

Test system: brown planthopper (Nilaparvata lugens)
Assay: Nilaparvata lugens spray test
Type: in vivo
Settings: 96 h
In short: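 Rice plants (Oryza sativa) sprayed with compound formulated in acetone/DMF with alkylarylpolyglycol ether emulsifier (1000 ppm in diluting water), then infested with planthoppers. Mortality (%) scored after 4 days; 100% = all insects killed, 0% = none killed.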

**Q.** How did the mortality at 500 g/ha turn out when CNC(=O)c1cc(-n2ncnc2[C@H](C)NC(=O)c2cc(Br)cc(OC(F)(F)F)c2)ncn1 [I-74] was run?
**A.** Its mortality at 500 g/ha is 100%.

**Q.** With C[C@H](NC(=O)c1cc(OC(F)F)cc(OC(F)F)c1)c1ncnn1-c1cc(C(N)=O)ncn1 [I-93] as the molecule, how does the mortality at 500 g/ha read?
**A.** Its mortality at 500 g/ha is 100%.

Test system: fall armyworm larvae (Spodoptera frugiperda)
Assay: whole plant or invertebrate
Type: in vivo
Settings: 168 h
In short: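 Percent kill of Spodoptera frugiperda caterpillars, read 7 days after infestation of dried, spray-treated Zea mays leaf pieces. Spray preparation: compound in acetone plus dimethylformamide, diluted with emulsifier-containing water.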

**Q.** Which mortality at 100 g/ha does the source give for CNC(=O)c1cc(-n2ncnc2[C@H](C)NC(=O)c2cc(Br)cc(OC(F)(F)F)c2)ncn1 [I-74] here?
**A.** Its mortality at 100 g/ha is 100%.

**Q.** For C[C@H](NC(=O)c1cc(OC(F)F)cc(OC(F)F)c1)c1ncnn1-c1cc(C(N)=O)ncn1 [I-93], which mortality at 100 g/ha is on record?
**A.** The mortality at 100 g/ha was 100%.

Test system: adult flies Musca domestica strain WHO-N
Assay: Musca domestica test (MUSCDO surface treatment & contact assay)
Type: in vivo
Settings: surface concentration 4 mg/m^2, 30 min exposure, 24 hours after contact, read-out: efficacy (mortality)
Protocol: Musca domestica Test (MUSCDO Surface Treatment & Contact Assay)
as §1
as §2, with “flies” for “mosquitoes”, “Musca domestica” for “Aedes aegypti”, “WHO-N” for “MONHEIM”

**Q.** Which mortality at 4 mg/m2 does the source give for CNC(=O)c1cc(-n2ncnc2[C@H](C)NC(=O)c2cc(Br)cc(OC(F)(F)F)c2)ncn1 [I-74] here?
**A.** The mortality at 4 mg/m2 was 80 to 100%.

**Q.** How did the mortality at 4 mg/m2 turn out when C[C@H](NC(=O)c1cc(OC(F)F)cc(OC(F)F)c1)c1ncnn1-c1cc(C(N)=O)ncn1 [I-93] was run?
**A.** The mortality at 4 mg/m2 was 80 to 100%.

Same assay, conditions: surface concentration 20 mg/m^2, 30 min exposure, 24 hours after contact, read-out: efficacy (mortality)

**Q.** Which mortality at 20 mg/m2 does the source give for CNC(=O)c1cc(-n2ncnc2[C@H](C)NC(=O)c2cc(Br)cc(OC(F)(F)F)c2)ncn1 [I-74] here?
**A.** The mortality at 20 mg/m2 was 80 to 100%.

**Q.** C[C@H](NC(=O)c1cc(OC(F)F)cc(OC(F)F)c1)c1ncnn1-c1cc(C(N)=O)ncn1 [I-93] was tested. Which mortality at 20 mg/m2 did it give?
**A.** Its mortality at 20 mg/m2 is 80 to 100%.

Test system: adult animals Blattella germanica strain PAULINIA
Assay: Blattella germanica test (BLTTGE surface treatment & contact assay)
Type: in vivo
Settings: surface concentration 4 mg/m^2, 30 min exposure, 24 hours after contact, read-out: efficacy (mortality)
Protocol: Blattella germanica Test (BLTTGE Surface Treatment & Contact Assay)
as §1
In order to produce a sufficient, active ingredient containing solution it is necessary to solve the test compound in the solvent-mix (acetone at 2 mg/ml/RME 2000 ppm). This solution is pipetted onto a glazed tile and after evaporation of the acetone, adult animals of the species Blattella germanica strain PAULINIA are placed onto the dried surface. The exposure time is 30 minutes.
Mortality in percent (%) is determined 24 hours after contact of the insects to the treated surface. 100% mortality means that all tested insects are dead, whereas 0% means that no insect died.

**Q.** CNC(=O)c1cc(-n2ncnc2[C@H](C)NC(=O)c2cc(Br)cc(OC(F)(F)F)c2)ncn1 [I-74] was tested. Which mortality at 4 mg/m2 did it give?
**A.** Its mortality at 4 mg/m2 is 80 to 100%.

**Q.** Which mortality at 4 mg/m2 does the source give for C[C@H](NC(=O)c1cc(OC(F)F)cc(OC(F)F)c1)c1ncnn1-c1cc(C(N)=O)ncn1 [I-93] here?
**A.** The mortality at 4 mg/m2 was 80 to 100%.

Same assay, conditions: surface concentration 20 mg/m^2, 30 min exposure, 24 hours after contact, read-out: efficacy (mortality)

**Q.** With CNC(=O)c1cc(-n2ncnc2[C@H](C)NC(=O)c2cc(Br)cc(OC(F)(F)F)c2)ncn1 [I-74] as the molecule, how does the mortality at 20 mg/m2 read?
**A.** The mortality at 20 mg/m2 was 80 to 100%.

**Q.** For C[C@H](NC(=O)c1cc(OC(F)F)cc(OC(F)F)c1)c1ncnn1-c1cc(C(N)=O)ncn1 [I-93], which mortality at 20 mg/m2 is on record?
**A.** Its mortality at 20 mg/m2 is 80 to 100%.

Test system: adult cat fleas (Ctenocephalides felis)
Assay: Ctenocephalides felis in-vitro contact test, adult cat flea
Type: in vivo
Settings: 5 μg/cm^2 (=500 g/ha), after 48 hours
In short: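 After 48 h of room-temperature exposure in tubes whose walls carried dried compound residue (5 μg/cm^2, from 900 ppm acetone solution), adult cat fleas (5-10 per tube) were heat-challenged at 45-50° C up to 5 min. Fleas unable to climb away were counted dead or moribund, expressed as % efficacy.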

**Q.** For CNC(=O)c1cc(-n2ncnc2[C@H](C)NC(=O)c2cc(Br)cc(OC(F)(F)F)c2)ncn1 [I-74], which “efficacy (fleas dead or moribund)” value is on record?
**A.** Its value is 100%.

Test system: larvae of the banded cucumber beetle (Diabrotica balteata)
Assay: Diabrotica balteata spray test
Type: in vivo
Settings: 168 h, 100 g/ha (=32 μg/well), after 7 days, read-out: efficacy (seedling growth)
In short: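 Efficacy is seedling survival after 7 days, where 0% means no seedlings grew and 100% means growth equal to untreated, uninfested controls. Wheat seedlings, germinated on agar for 1 day, were sprayed with the aqueous emulsifier dilution (acetone/DMF solvent) and then exposed to 10–20 banded cucumber beetle larvae.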

**Q.** With CNC(=O)c1cc(-n2ncnc2[C@H](C)NC(=O)c2cc(Br)cc(OC(F)(F)F)c2)ncn1 [I-74] as the molecule, how does the pest or weed control at 32 µg/disc, 100 g/ha read?
**A.** The pest or weed control at 32 µg/disc, 100 g/ha was 80%.

**Q.** Which pest or weed control at 32 µg/disc, 100 g/ha does the source give for C[C@H](NC(=O)c1cc(OC(F)F)cc(OC(F)F)c1)c1ncnn1-c1cc(C(N)=O)ncn1 [I-93] here?
**A.** Its pest or weed control at 32 µg/disc, 100 g/ha is 100%.

Test system: adult brown dog ticks (Rhipicephalus sanguineus)
Assay: Rhipicephalus sanguineus in-vitro contact test, adult brown dog ticks
Type: in vivo
Settings: 48 h, read-out: efficacy (ticks dead or moribund)
In short: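 Contact exposure: dried compound film inside glass tubes, dose 5 μg/cm^2 at 900 ppm, 5-10 adults per tube at room temperature. Scored at 48 h via a heat-escape test on a 45-50° C plate for up to 5 min.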

**Q.** How did the pest or weed control at 5 µg/cm2, 500 g/ha turn out when CNC(=O)c1cc(-n2ncnc2[C@H](C)NC(=O)c2cc(Br)cc(OC(F)(F)F)c2)ncn1 [I-74] was run?
**A.** Its pest or weed control at 5 µg/cm2, 500 g/ha is 100%.
